Source: PMC8453848, “Effect of GLPG1205, a GPR84 Modulator, on CYP2C9, CYP2C19, and CYP1A2 Enzymes: In Vitro and Phase 1 Studies” (Clinical Pharmacology in Drug Development, 2021)
Converted amounts (≈) assume the structure as drawn. Like-named read-outs stand apart in the source and are kept apart here.

How the values were obtained:
[1] = Test of solubility of GLPG1205 in culture medium for incubations; type: physicochemical; conditions: culture medium for incubation; final DMSO percentage 0.4%; read-out: limit of solubility in culture medium for incubations
Experimental: Solubility and cytotoxicity experiments were performed prior to incubation of GLPG1205 with cells.
Test of Solubility Prior to incubation of GLPG1205 with cells, a preliminary test of solubility was performed. Various stock solutions of GLPG1205 in dimethylsulfoxide (DMSO) were prepared. Different solutions were prepared by diluting the stock solutions in culture medium for incubation to obtain 100, 200, 250, 400 and 500 µM with different final percentages of solvent (maximum 0.5% DMSO, volume/volume [v/v]).

CYP1A2 [2] = experiment: in vitro; conditions: human
Experimental: GLPG1205 was incubated with monolayer cultures of fresh human hepatocytes from 3 individual donors for 24 hours (messenger ribonucleic acid [mRNA] analysis) or 48 hours (enzyme activity) at 6 different concentrations: 0.5, 1, 5, 10, 50, and 100 μM (0.19, 0.38, 1.89, 3.78, 18.9, and 37.8 μg/mL, respectively). All incubations contained 0.4% dimethylsulfoxide (DMSO). Incubation with 50 μM omeprazole containing 0.1% DMSO was used as a positive control. Incubations with 0.1% and 0.4% DMSO alone were used as negative controls.
Following a 48‐hour incubation period, an enzymatic assay assessed phenacetin O‐deethylase (a CYP1A2 substrate) activity by measuring the CYP1A2‐dependent metabolite acetaminophen in supernatants. Acetaminophen was quantified using liquid chromatography coupled with tandem mass spectrometry (LC‐MS/MS).
A concentration‐dependent increase in mRNA of <100% was considered a negative finding when the increase in mRNA was less than 20% of the response of the positive control.
Incubation for CYP1A2 Induction Experiment The incubations for enzyme activity measurements were performed with cell monolayers in 96-well plates and the incubations for mRNA measurements were performed with cell monolayers in 24-well plates.^3
GLPG1205 was incubated with monolayer culture of human fresh hepatocytes from 3 individual donors for 24 or 48 hours, for messenger ribonucleic acid (mRNA) analysis and enzyme activity, respectively, at 6 different concentrations (n = 3): 0.1, 0.5, 1, 5, 10 and 50 µM (0.038, 0.19, 0.38, 1.89, 3.78 and 18.9 µg/mL, respectively). […] Incubation with 50 µM omeprazole containing 0.1% DMSO was used as a positive control. Incubations with 0.1% and 0.4% DMSO alone were used as negative controls. The CMI was William’s E medium with hepatocytes induction additives. Cells were cultured at 37°C in a humidified carbon dioxide/air (5%/95%) atmosphere. Culture media were renewed daily in all wells.
Enzymatic Assay At the end of the 48-hour incubation period, CYP1A2 enzyme activity was measured in intact cells by incubating with phenacetin, a probe substrate. Cells were first washed with minimum essential medium (MEM) devoid of phenol red to remove remaining test compounds or reference inducers and were then incubated for 2 hours at 37°C with 200 µM phenacetin in MEM devoid of phenol red and containing 0.1% DMSO. Assessment of phenacetin O-deethylase activity in supernatants was carried out by measuring the CYP1A2-dependent metabolite acetaminophen. Cell protein content was also determined; protein content was measured according to the bicinchoninic acid method^4 and calculated using a bovine serum albumin standard curve.
A 2-fold dilution of the specimens in a solution of 1 µM D4-acetaminophen in water with 0.1% formic acid was performed and 20 µL were injected into the LC-MS/MS system. The mobile phase consisted of ammonium acetate 5 mM in water (A) and formic acid 0.3% in acetonitrile/methanol, 50/50, v/v. The following gradient was applied with a 1.5 mL/min flow rate and an oven temperature of 40°C: 98% A from 0 minutes; 70% A from 2.5 minutes; 1% A from 2.6 minutes; 1% A from 3.2 minutes; 98% A from 3.25 minutes; 98% A from 4.5 minutes. In this condition, the retention time of acetaminophen was approximately 2.33 minutes. Controls were performed by injecting calibration standards at the beginning and end of each run. […]

CYP1A2 [3] = biological target: T1, CYP1A2 (Homo sapiens, UniProt P05177); experiment: CYP1A2 inhibition, phenacetin O-deethylase assay in human liver microsomes; type: in vitro ADME; parameters: from tissue; host or cells: in vivo, 14 healthy male subjects; conditions: for IC50: estimated
T1 sequence (P05177 1-516): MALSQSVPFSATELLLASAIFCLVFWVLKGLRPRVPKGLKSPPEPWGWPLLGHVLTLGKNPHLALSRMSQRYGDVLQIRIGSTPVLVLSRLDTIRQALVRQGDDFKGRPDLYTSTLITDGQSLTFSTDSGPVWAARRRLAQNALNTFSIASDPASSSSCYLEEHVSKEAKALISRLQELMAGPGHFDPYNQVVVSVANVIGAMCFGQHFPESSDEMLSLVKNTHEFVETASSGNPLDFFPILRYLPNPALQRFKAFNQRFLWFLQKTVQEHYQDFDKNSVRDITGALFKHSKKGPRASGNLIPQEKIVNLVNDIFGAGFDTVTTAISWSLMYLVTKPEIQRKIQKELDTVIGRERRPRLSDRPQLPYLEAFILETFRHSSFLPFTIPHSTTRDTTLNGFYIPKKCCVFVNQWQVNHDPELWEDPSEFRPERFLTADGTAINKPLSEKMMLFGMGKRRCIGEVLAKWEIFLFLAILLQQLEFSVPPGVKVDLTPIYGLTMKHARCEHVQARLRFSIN
Experimental: Inhibition of the biotransformation of CYP‐specific substrates by GLPG1205 was studied using human liver microsomes. Incubation was performed at 37°C with the following conditions: n = 3 for all assays; 0.1 M phosphate buffer (pH 7.4), the cofactor nicotinamide adenine dinucleotide phosphate (NADPH) incubated at 2 mM, the CYP‐specific substrate incubated at 1 nonsaturating concentration, and GLPG1205. Additional incubation was performed with (1) a 30‐minute preincubation step of GLPG1205 with microsomes before the addition of the cofactor NADPH and CYP substrate; and (2) a 30‐minute preincubation step of GLPG1205 with microsomes and the cofactor NADPH, before the addition of the CYP substrate. GLPG1205 was tested at 6 concentrations: 0.5, 1, 5, 10, 50, and 100 μM (0.19, 0.38, 1.89, 3.78, 18.9, and 37.8 μg/mL, respectively), for each condition. The CYP‐specific substrates were incubated per the above conditions at the following concentrations: tolbutamide, 200 μM, CYP2C9 substrate; S‐mephenytoin, 60 μM, CYP2C19 substrate; phenacetin, 40 μM, CYP1A2 substrate.
Metabolites of the CYP‐specific substrates (acetaminophen for CYP1A2, hydroxytolbutamide for CYP2C9, hydroxymephenytoin for CYP2C19) were quantified using LC‐MS/MS.
Enzymatic activity in the presence of GLPG1205 was expressed as a percentage of the control activity obtained with the vehicle only (ie, without GLPG1205 or reference inhibitor). Decreases in activity of less than 20% were not considered clinically relevant.
Protocol for CYP Inhibition of the biotransformation of CYP-specific substrates by GLPG1205 was studied using human liver microsomes.^7 Incubations were performed at 37°C with the following conditions: n = 3 for all assays; 0.1 M phosphate buffer pH 7.4; the cofactor β-nicotinamide adenine dinucleotide phosphate (NADPH) incubated at 2 mM; the CYP-specific substrate incubated at one non-saturating concentration; and GLPG1205. Additional incubations were performed with: 1) a 30-minute preincubation step of GLPG1205 with microsomes before addition of the cofactor NADPH and CYP substrate; and 2) a 30-minute preincubation step of GLPG1205 with microsomes and the cofactor NADPH, before addition of the CYP substrate.
GLPG1205 was tested at 6 concentrations: 0.5, 1, 5, 10, 50 and 100 µM (0.19, 0.38, 1.89, 3.78, 18.9, 37.8 µg/mL, respectively).
The CYP-specific substrates were incubated at the following conditions: tolbutamide (200 µM; CYP2C9); S-mephenytoin (60 µM; CYP2C19); phenacetin (40 µM; CYP1A2).^8-10 Reference inhibitors (as detailed in the previous section) were incubated in parallel. For all assays, the following controls were incubated in parallel: 1) with CYP substrate, without microsomes, with NADPH, without inhibitor (to check for substrate stability); 2) with CYP substrate, with microsomes, without NADPH, without inhibitor (to check for non-NADPH-dependent metabolism of substrate); and 3) without substrate, with microsomes, with NADPH, with test compound or reference inhibitor (to check for potential analytical interference).
At the end of the incubation period, the reaction was stopped with the addition of 0.15 M phosphoric acid (300 µL); proteins were allowed to precipitate for a minimum of 1 hour at approximately 4°C. After centrifugation at 3200 g for 20 minutes at approximately + 4°C, supernatants were collected.

[4] = Phenacetin O-deethylase activity, fold induction

Q: What does the source list for `O=c1nc(OC[C@@H]2COCCO2)cc2n1CCc1cc(C#CC3CC3)ccc1-2` [GLPG1205, 9‐cyclopropylethynyl‐2‐[(S)‐1‐(1,4)dioxan‐2‐ylmethoxy]‐6,7‐dihydropyrimido[6,1‐a]isoquinolin‐4‐one]?
A: solubility at 24 h [1]: 100 µM (≈ 37.8 µg/mL); Phenacetin O-deethylase activity, fold induction (CYP1A2 [2]; 48 h, 50 µM): 0.367 ± 0.021 fold; fold induction at 48 h, 0.1 µM (CYP1A2 [2]; [4]): 1.64 ± 0.256; fold induction at 48 h, 50 µM (CYP1A2 [2]; [4]): 0.335 ± 0.033; increases in CYP1A2 activity compared with the negative control (0.4% DMSO) (CYP1A2 [2]; hepatocytes, 48 h): ≤ 2 fold; increases in CYP1A2 activity, % of the positive control (omeprazole) (CYP1A2 [2]; hepatocytes, 48 h): lower than 40%; inhibition of CYP1A2 in words (CYP1A2 [3]; GLPG1205 50‐100 μM): Weak; IC50 (CYP1A2 [3]; human liver microsomes, read-out: IC50 for inhibition of CYP1A2): ≥ 100 µM; IC50 (CYP1A2 [3]; equivalent of ≥100 μM, read-out: IC50 for inhibition of CYP1A2, equivalent): ≥ 99.9 µM; inhibition at 7 min, 100 µM (CYP1A2 [3]; human, liver microsomes, pH 7.4, probe phenacetin 40 µM, GLPG1205 100 μM following a 30‐minute preincubation with NADPH): 52.9%; inhibition at 7 min (CYP1A2 [3]; human, liver microsomes, pH 7.4, probe phenacetin 40 µM, GLPG1205 50‐100 μM, phenacetin 40 μM): 20.4 to 38%
